Results: the NIST ThermoML archive (doi:10.1016/j.jct.2010.10.016)

Assay: relative permittivity at various frequencies (dimensionless); xn = mol fraction of the nth substance listed
Conditions: 101 kPa, Liquid, Frequency=3 MHz, AC method

CCCCOCCO [2-butoxyethan-1-ol] + C[N+](=O)[O-]
relative permittivity
Conditions | 293.15 K | 298.15 K | 303.15 K | 308.15 K | 313.15 K
x2 = 0 | 9.78 | 9.35 | 8.88 | 8.39 | 7.91
x2 = 0.05 | 12.57 | 11.95 | 11.28 | 10.61 | 9.96
x2 = 0.0999 | 14.98 | 14.28 | 13.54 | 12.78 | 12.04
x2 = 0.2 | 19.71 | 18.87 | 18 | 17.16 | 16.23
x2 = 0.3 | 24.36 | 23.34 | 22.34 | 21.34 | 20.28
x2 = 0.4 | 28.77 | 27.63 | 26.37 | 25.27 | 24.13
x2 = 0.5 | 32.64 | 31.38 | 29.98 | 28.79 | 27.65
x2 = 0.6 | 35.72 | 34.44 | 32.99 | 31.85 | 30.75
x2 = 0.7001 | 38.28 | 36.93 | 35.47 | 34.31 | 33.16
x2 = 0.8 | 40.28 | 38.93 | 37.36 | 36 | 34.68
x2 = 0.9005 | 40.93 | 39.67 | 37.93 | 36.51 | 35.07
x2 = 0.95 | 39.91 | 38.78 | 37.3 | 36.07 | 34.84

C[N+](=O)[O-] [nitromethane] + COCCO
relative permittivity
Conditions | 293.15 K | 298.15 K | 303.15 K | 308.15 K | 313.15 K
x1 = 0.05 | 19.49 | 18.95 | 18.48 | 17.81 | 17.21
x1 = 0.0998 | 21.49 | 20.81 | 20.26 | 19.57 | 18.85
x1 = 0.2 | 25.34 | 24.57 | 23.89 | 23.11 | 22.12
x1 = 0.3 | 29.02 | 28.08 | 27.27 | 26.43 | 25.3
x1 = 0.4 | 32.43 | 31.42 | 30.47 | 29.45 | 28.29
x1 = 0.5 | 35.32 | 34.24 | 33.22 | 32.16 | 31.09
x1 = 0.6 | 37.67 | 36.51 | 35.49 | 34.47 | 33.47
x1 = 0.7 | 39.53 | 38.31 | 37.26 | 36.18 | 35.12
x1 = 0.8002 | 40.88 | 39.53 | 38.38 | 37.08 | 35.78
x1 = 0.8999 | 40.91 | 39.5 | 38.23 | 36.88 | 35.27
x1 = 0.9503 | 39.82 | 38.54 | 37.28 | 36.1 | 34.7
x1 = 1 | 37.31 | 36.52 | 35.66 | 34.92 | 34.09
